Results: ChEMBL document CHEMBL1201862, “PubChem BioAssay data set” (2004)
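Exposure lasted 48 hours, with cells grown in 96-well plates and compounds tested at five concentrations. Here, GI50 denotes the concentration required for 50% inhibition of growth.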 Active and inactive are the calls of the source. No stated cut-off is given here; in the data, active = GI50 up to about 1.1 µM and inactive = higher.

Key:
Test in all cases: NCI anticancer screen, dose series, 48 h
[1] = tested on: KM12
[2] = tested on: SN12C
[3] = tested on: T47D
[4] = tested on: MOLT-4
[5] = tested on: SR
[6] = tested on: NCI-H23
[7] = tested on: PC-3
[8] = tested on: A549
[9] = tested on: U-251
[10] = tested on: OVCAR-8
[11] = tested on: NCI/ADR-RES
[12] = tested on: DU-145
[13] = tested on: MDA-N
[14] = tested on: HL-60
[15] = tested on: SK-MEL-2
[16] = tested on: HT-29
[17] = tested on: SF-539
[18] = tested on: ACHN
[19] = tested on: HCC 2998
[20] = tested on: IGROV-1

Row | Structure (SMILES) | GI50 [1] | GI50 [2] | GI50 [3] | GI50 [4] | GI50 [5] | GI50 [6] | GI50 [7] | GI50 [8] | GI50 [9] | GI50 [10] | GI50 [11] | GI50 [12] | GI50 [13] | GI50 [14] | GI50 [15] | GI50 [16] | GI50 [17] | GI50 [18] | GI50 [19] | GI50 [20]
1 | Cn1c(-c2ccccc2)cc(-c2ccc3c(c2)OCO3)c1-c1ccsc1 | > 100 µM (inactive) | > 100 µM (inactive) | > 100 µM (inactive) | > 100 µM (inactive) | > 100 µM (inactive) | 52.8 µM (inactive) | > 100 µM (inactive) | > 100 µM (inactive) | > 100 µM (inactive) | > 100 µM (inactive) | > 100 µM (inactive) | > 100 µM (inactive) | > 100 µM (inactive) | > 100 µM (inactive) | > 100 µM (inactive) | > 100 µM (inactive) | > 100 µM (inactive) | > 100 µM (inactive) | > 100 µM (inactive) | –
2 | ClCc1c(-c2ccccc2)nn(-c2ccccc2)c1CCl | 13.2 µM (inactive) | 19.4 µM (inactive) | 2 µM (inactive) | – | 2.33 µM (inactive) | 15.6 µM (inactive) | 9.71 µM (inactive) | 16.5 µM (inactive) | 12.3 µM (inactive) | 14.2 µM (inactive) | 29.4 µM (inactive) | 14 µM (inactive) | 10.7 µM (inactive) | 3.14 µM (inactive) | 13.2 µM (inactive) | 9.75 µM (inactive) | 16.1 µM (inactive) | – | 13.9 µM (inactive) | 6.79 µM (inactive)
3 | CN1C(=O)c2c(c3c4ccccc4n(C)c3c3c2c2ccccc2n3C)C1=O | > 100 µM (inactive) | > 100 µM (inactive) | > 100 µM (inactive) | > 100 µM (inactive) | 67.3 µM (inactive) | > 100 µM (inactive) | > 100 µM (inactive) | > 100 µM (inactive) | > 100 µM (inactive) | > 100 µM (inactive) | > 100 µM (inactive) | > 100 µM (inactive) | > 100 µM (inactive) | – | > 100 µM (inactive) | > 100 µM (inactive) | > 100 µM (inactive) | > 100 µM (inactive) | > 100 µM (inactive) | > 100 µM (inactive)
4 | Cc1cc(S(=O)(=O)Nc2nc(N)n(-c3ccccc3)n2)c(S)cc1Cl | > 100 µM (inactive) | > 100 µM (inactive) | > 100 µM (inactive) | > 100 µM (inactive) | > 100 µM (inactive) | – | > 100 µM (inactive) | > 100 µM (inactive) | 60 µM (inactive) | > 100 µM (inactive) | > 100 µM (inactive) | > 100 µM (inactive) | > 100 µM (inactive) | > 100 µM (inactive) | > 100 µM (inactive) | > 100 µM (inactive) | 86.3 µM (inactive) | > 100 µM (inactive) | > 100 µM (inactive) | > 100 µM (inactive)
5 | CCOC(=O)c1sc2nc(SC)nc(Nc3ccc4c(c3)OCO4)c2c1N | > 100 µM (inactive) | 59 µM (inactive) | 39.5 µM (inactive) | > 100 µM (inactive) | > 100 µM (inactive) | 53 µM (inactive) | 37.8 µM (inactive) | 68.9 µM (inactive) | 32.9 µM (inactive) | – | 64.6 µM (inactive) | 35.8 µM (inactive) | > 100 µM (inactive) | > 100 µM (inactive) | 68.4 µM (inactive) | – | 32.9 µM (inactive) | 19.9 µM (inactive) | > 100 µM (inactive) | > 100 µM (inactive)
6 | CCOC(=O)C1c2[nH]c3ccccc3c2CCN1C(=O)c1ccco1 (configuration not stated) | > 10 µM (inactive) | > 10 µM (inactive) | > 10 µM (inactive) | > 10 µM (inactive) | > 10 µM (inactive) | – | > 10 µM (inactive) | > 10 µM (inactive) | > 10 µM (inactive) | > 10 µM (inactive) | > 10 µM (inactive) | > 10 µM (inactive) | > 10 µM (inactive) | > 10 µM (inactive) | – | > 10 µM (inactive) | > 10 µM (inactive) | > 10 µM (inactive) | > 10 µM (inactive) | > 10 µM (inactive)
7 | CCN1/C(=C/C#C/C(C)=C\c2sc3ccccc3[n+]2CC)Sc2ccccc21 | 1.28 µM (inactive) | 4.35 µM (inactive) | 5.13 µM (inactive) | 24.4 µM (inactive) | 0.811 µM (active) | – | 1.82 µM (inactive) | 2.92 µM (inactive) | 0.948 µM (active) | 2.07 µM (inactive) | 3.53 µM (inactive) | 3.42 µM (inactive) | 2.9 µM (inactive) | 0.482 µM (active) | 2.44 µM (inactive) | 1.35 µM (inactive) | 2.9 µM (inactive) | 1.16 µM (inactive) | 3.01 µM (inactive) | 1.75 µM (inactive)
8 | Cn1c(=O)c2nc[nH]c2n(C)c1=O [THEOPHYLLINE] | > 100 µM (inactive) | > 100 µM (inactive) | > 100 µM (inactive) | > 100 µM (inactive) | > 100 µM (inactive) | > 100 µM (inactive) | > 100 µM (inactive) | > 100 µM (inactive) | – | > 100 µM (inactive) | > 100 µM (inactive) | > 100 µM (inactive) | > 100 µM (inactive) | > 100 µM (inactive) | > 100 µM (inactive) | – | – | > 100 µM (inactive) | > 100 µM (inactive) | > 100 µM (inactive)
